Values of other authors in patent US9999577B2, “Cream gels comprising at least one retinoid and benzoyl peroxide” (GALDERMA RESEARCH & DEVELOPMENT, priority 2006, dated 2018).
Where two headings read alike, the source gives them in different places.

Legend:
[1] = not given; remark: listed apart in the source
[2] = for Decomposition time of benzoyl peroxide: 40° C.

In the case of `CC1=C(/C=C/C(C)=C/C=C/C(C)=C/C(=O)O)C(C)(C)CCC1` [tretinoin], the “Retinoid decomposing in presence of benzoyl peroxide formulation” value (2 hours) is given as 50% and the “Retinoid decomposing in presence of benzoyl peroxide formulation” value (4 hours) is given as 95%.
For `COc1ccc(-c2ccc3cc(C(=O)O)ccc3c2)cc1C12CC3CC(CC(C3)C1)C2` [adapalene, 6-(3-(1-adamantyl)-4-methoxyphenyl)-2-naphthoic acid], the “Retinoid decomposition in presence of benzoyl peroxide formulation” value (during 24 hours) is given as “no decomposition”.
In the case of `O=C(OOC(=O)c1ccccc1)c1ccccc1` [benzoyl peroxide], the “Solubility of benzoyl peroxide” value ([1]; solvent PEG 400) is given as 39.6 mg/g, the “Solubility of benzoyl peroxide” value ([1]; solvent ethanol) is given as 17.9 mg/g and the “Solubility of benzoyl peroxide” value ([1]; solvent glycerol) is given as 0.15 mg/g. The “Solubility of benzoyl peroxide” value ([1]; solvent propylene glycol) was 2.95 mg/g, the “Solubility of benzoyl peroxide” value ([1]; solvent propylene glycol/water (75:25)) was 0.36 mg/g and the “Solubility of benzoyl peroxide” value ([1]; solvent water) was 0.000155 mg/g. For the same molecule, the “Decomposition of benzoyl peroxide in suspension” value ([2]; dispersed form in water and propylene glycol, storing for 90 days) was “not decomposed”, the “Decomposition time of benzoyl peroxide” value ([2]; in PEG 400 (0.5 mg/g)) was 1.4 days and the “Decomposition time of benzoyl peroxide” value ([2]; in ethanol) was 29 days. For the same molecule, the “Decomposition time of benzoyl peroxide” value ([2]; in propylene glycol) was 53 days.
